Data from patent US11458123B2 (Arvinas, Inc., priority 2016, dated 2022).

test system: tau protein; test: Tau protein in vitro degradation assay (Western blot, Tau-13 antibody); assay type: cell-based, human; details: SK-N-SH cells; 72 hours of incubation; tested at 300 nM, 100 nM, 33 nM and 11 nM; Western blot, Tau-13 antibody
Method in brief: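 SK-N-SH cells, seeded ≥18 h beforehand, were incubated 72 h with tau PROTACs at 1000, 300 and 100 nM or at 300, 100, 33 and 11 nM. Lysates in protease-inhibitor buffer were resolved by SDS-PAGE; tau quantified by Western blot with Tau-13 antibody recognising all human tau forms.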

Structure (SMILES)	Degradation activity* (highest amount of degradation observed at any dosage; tau protein remaining)	Degradation activity (tau protein remaining; highest amount of degradation observed at any dosage)
Cn1c2ccncc2c2ccc(-c3ccc(N4CCC(CCN5CCN(c6ccc7c(c6)CN(C6CCC(=O)NC6=O)C7=O)CC5)CC4)nc3)cc21 (stereo not shown) [Compound 128, 3-(5-(4-(2-(1-(5-(5-methyl-5H-pyrido[4,3-b]indol-7-yl)pyridin-2-yl)piperidin-4-yl)ethyl)piperazin-1-yl)-1-oxoisoindolin-2-yl)piperidine-2,6-dione]	C (>80% tau protein remaining after 72 hours of incubation with the test compound)	–
O=C1CCC(N2C(=O)c3ccc(OCCCCCN4CCN(CCO[C@H]5C[C@@H](Oc6ccc(-c7ccc8c(c7)[nH]c7ccncc78)cn6)C5)CC4)cc3C2=O)C(=O)N1 (stereo partly shown) [Compound 56, 5-((5-(4-(2-((1 s,3 s)-3-((5-(5H-pyrido[4,3-b]indol-7-yl)pyridin-2-yl)oxy)cyclobutoxy)ethyl)piperazin-1-yl)pentyl)oxy)-2-(2,6-dioxopiperidin-3-yl)isoindoline-1,3-dione]	C (>80% tau protein remaining after 72 hours of incubation with the test compound)	–
Cn1c2ccncc2c2ccc(-c3ccc(O[C@H]4C[C@H](OCCOCCOCCC5CN(c6ccc7c(c6)C(=O)N(C6CCC(=O)NC6=O)C7=O)C5)C4)nc3)cc21 (stereo partly shown) [Compound 190, 2-(2,6-dioxopiperidin-3-yl)-5-(3-(2-(2-(2-((1r,3r)-3-((5-(5-methyl-5H-pyrido[4,3-b]indol-7-yl)pyridin-2-yl)oxy)cyclobutoxy)ethoxy)ethoxy)ethyl)azetidin-1-yl)isoindoline-1,3-dione]	–	C (>80% tau protein remaining after 72 hours of incubation with the test compound)
Cn1c2ccncc2c2ccc(-c3ccc(N4CC(OCCOCCOCCOCCOc5ccc6c(c5)C(=O)N(C5CCC(=O)NC5=O)C6=O)C4)nc3)cc21 (stereo not shown) [Compound 208, 2-(2,6-dioxopiperidin-3-yl)-5-(2-(2-(2-(2-((1-(5-(5-methyl-5H-pyrido[4,3-b]indol-7-yl)pyridin-2-yl)azetidin-3-yl)oxy)ethoxy)ethoxy)ethoxy)ethoxy)isoindoline-1,3-dione]	–	A (≤50% tau protein remaining after 72 hours of incubation with the test compound)
O=C1CCC(N2C(=O)c3ccc(N4CC(OCCCOCCCO[C@H]5C[C@H](Oc6ncc(-c7ccc8c(c7)[nH]c7ccncc78)cc6C(F)(F)F)C5)C4)cc3C2=O)C(=O)N1 (stereo partly shown) [Compound 148, 5-(3-(3-(3-((1r,3r)-3-((5-(5H-pyrido[4,3-b]indol-7-yl)-3-(trifluoromethyl)pyridin-2-yl)oxy)cyclobutoxy)propoxy)propoxy)azetidin-1-yl)-2-(2,6-dioxopiperidin-3-yl)isoindoline-1,3-dione]	B (≤80% and >50% tau protein remaining after 72 hours of incubation with the test compound)	–
Cn1c2ccncc2c2ccc(-c3ccc(C(F)(F)COCCCCCOCCCCCCOc4ccc5c(c4)C(=O)N(C4CCC(=O)NC4=O)C5=O)nc3)cc21 (stereo not shown) [Compound 93, 5-((6-((5-(2,2-difluoro-2-(5-(5-methyl-5H-pyrido[4,3-b]indol-7-yl)pyridin-2-yl)ethoxy)pentyl)oxy)hexyl)oxy)-2-(2,6-dioxopiperidin-3-yl)isoindoline-1,3-dione]	C (>80% tau protein remaining after 72 hours of incubation with the test compound)	–
Cn1c2ccncc2c2ccc(-c3ccc(O[C@H]4C[C@H](OC5CCN(c6cccc(C#CCOc7ccc8c(c7)C(=O)N(C7CCC(=O)NC7=O)C8=O)c6)CC5)C4)nc3)cc21 (stereo partly shown) [Compound 198, 2-(2,6-dioxopiperidin-3-yl)-5-((3-(3-(4-((1r,3r)-3-((5-(5-methyl-5H-pyrido[4,3-b]indol-7-yl)pyridin-2-yl)oxy)cyclobutoxy)piperidin-1-yl)phenyl)prop-2-yn-1-yl)oxy)isoindoline-1,3-dione]	–	A (≤50% tau protein remaining after 72 hours of incubation with the test compound)
O=C1CCC(N2C(=O)c3ccc(N4CCN(CCCc5ccc(O[C@H]6C[C@H](Oc7ccc(-c8ccc9c(c8)[nH]c8ccncc89)cn7)C6)cn5)CC4)cc3C2=O)C(=O)N1 (stereo partly shown) [Compound 64, 5-(4-(3-(5-((1r,3r)-3-((5-(5H-pyrido[4,3-b]indol-7-yl)pyridin-2-yl)oxy)cyclobutoxy)pyridin-2-yl)propyl)piperazin-1-yl)-2-(2,6-dioxopiperidin-3-yl)isoindoline-1,3-dione]	C (>80% tau protein remaining after 72 hours of incubation with the test compound)	–
O=C1CCC(N2Cc3cc(OCC#Cc4ccc(O[C@H]5C[C@H](Oc6ccc(-c7ccc8c(c7)[nH]c7ccncc78)cn6)C5)cn4)ccc3C2=O)C(=O)N1 (stereo partly shown) [Compound 180, 3-(5-((3-(5-((1r,3r)-3-((5-(5H-pyrido[4,3-b]indol-7-yl)pyridin-2-yl)oxy)cyclobutoxy)pyridin-2-yl)prop-2-yn-1-yl)oxy)-1-oxoisoindolin-2-yl)piperidine-2,6-dione]	–	A (≤50% tau protein remaining after 72 hours of incubation with the test compound)
Cn1c2ccncc2c2ccc(-c3ccc(O[C@H]4C[C@H](OCCOCCOC5CN(c6ccc7c(c6)C(=O)N(C6CCC(=O)NC6=O)C7=O)C5)C4)nc3)cc21 (stereo partly shown) [Compound 163, 2-(2,6-dioxopiperidin-3-yl)-5-(3-(2-(2-((1r,3r)-3-((5-(5-methyl-5H-pyrido[4,3-b]indol-7-yl)pyridin-2-yl)oxy)cyclobutoxy)ethoxy)ethoxy)azetidin-1-yl)isoindoline-1,3-dione]	C (>80% tau protein remaining after 72 hours of incubation with the test compound)	–
Cn1c2ccncc2c2ccc(-c3ccc(O[C@H]4C[C@H](OCCCCCCN5CCN(c6ccc7c(c6)C(=O)N(C6CCC(=O)NC6=O)C7=O)CC5C(F)(F)F)C4)nc3)cc21 (stereo partly shown) [Compound 96, 2-(2,6-dioxopiperidin-3-yl)-5-(4-(6-((1r,3r)-3-((5-(5-methyl-5H-pyrido[4,3-b]indol-7-yl)pyridin-2-yl)oxy)cyclobutoxy)hexyl)-3-(trifluoromethyl)piperazin-1-yl)isoindoline-1,3-dione]	B (≤80% and >50% tau protein remaining after 72 hours of incubation with the test compound)	–
Cn1c2ccncc2c2ccc(-c3ccc(O[C@H]4C[C@H](OCCCCCOCCC5CN(c6ccc7c(c6)C(=O)N(C6CCC(=O)NC6=O)C7=O)C5)C4)nc3)cc21 (stereo partly shown) [Compound 181, 2-(2,6-dioxopiperidin-3-yl)-5-(3-(2-((5-((1r,3r)-3-((5-(5-methyl-5H-pyrido[4,3-b]indol-7-yl)pyridin-2-yl)oxy)cyclobutoxy)pentyl)oxy)ethyl)azetidin-1-yl)isoindoline-1,3-dione]	–	B (≤80% and >50% tau protein remaining after 72 hours of incubation with the test compound)
Cc1ncsc1-c1ccc(CNC(=O)[C@@H]2C[C@@H](O)CN2C(=O)[C@H](C(C)C)N2Cc3ccccc3C2=O)c(OCCOCCOCCOCCOc2ccc(-c3ccc4c(c3)[nH]c3ccncc34)cn2)c1 [Compound 196, (2S,4R)—N-(2-(2-(2-(2-(2-((5-(5H-pyrido[4,3-b]indol-7-yl)pyridin-2-yl)oxy)ethoxy)ethoxy)ethoxy)ethoxy)-4-(4-methylthiazol-5-yl)benzyl)-4-hydroxy-1-((S)-3-methyl-2-(1-oxoisoindolin-2-yl)butanoyl)pyrrolidine-2-carboxamide]	–	C (>80% tau protein remaining after 72 hours of incubation with the test compound)

same assay, conditions: SK-N-SH cells; 72 hours of incubation; tested at 1000 nM, 300 nM and 100 nM

Structure (SMILES)	Activity* (highest amount of degradation observed at any dosage, as tau protein remaining)
Cc1ncsc1-c1ccc([C@H](C)NC(=O)[C@@H]2C[C@@H](O)CN2C(=O)[C@@H](NC(=O)COCCOCCOCC(=O)N2CCN(c3ccn4c(n3)nc3ccccc34)CC2)C(C)(C)C)cc1 [Compound 17, (2S,4R)-1-((S)-14-(4-(benzo[4,5]imidazo[1,2-a]pyrimidin-2-yl)piperazin-1-yl)-2-(tert-butyl)-4,14-dioxo-6,9,12-trioxa-3-azatetradecanoyl)-4-hydroxy-N—((S)-1-(4-(4-methylthiazol-5-yl)phenyl)ethyl)pyrrolidine-2-carboxamide]	C (>80% tau protein remaining after 72 hours of incubation with the test compound)
Cc1ncsc1-c1ccc([C@H](C)NC(=O)[C@@H]2C[C@@H](O)CN2C(=O)[C@@H](NC(=O)COCCCOCCCOc2ccc3nc(-c4ccc(N(C)C)cc4)ccc3c2)C(C)(C)C)cc1 [Compound 36, (2S,4R)-1-((S)-2-(2-(3-(3-(2-(4-(dimethylamino)phenyl)quinolin-6-yloxy)propoxy)propoxy)acetamido)-3,3-dimethylbutanoyl)-4-hydroxy-N—((S)-1-(4-(4-methylthiazol-5-yl)phenyl)ethyl)pyrrolidine-2-carboxamide]	C (>80% tau protein remaining after 72 hours of incubation with the test compound)
Cc1ncsc1-c1ccc([C@H](C)NC(=O)[C@@H]2C[C@@H](O)CN2C(=O)[C@@H](NC(=O)COCCOCCOCCOCCOc2ccc3nc(-c4ccc(N(C)C)cc4)ccc3c2)C(C)(C)C)cc1 [Compound 32, (2S,4R)-1-((S)-2-tert-butyl-17-(2-(4-(dimethylamino)phenyl)quinolin-6-yloxy)-4-oxo-6,9,12,15-tetraoxa-3-azaheptadecane)-4-hydroxy-N—((S)-1-(4-(4-methylthiazol-5-yl)phenyl)ethyl)pyrrolidine-2-carboxamide]	C (>80% tau protein remaining after 72 hours of incubation with the test compound)
